Data as given in ChEMBL document CHEMBL2062378, “Antimycobacterial activity: a facile three-component [3+2]-cycloaddition for the regioselective synthesis of highly functionalised dispiropyrrolidines” (Bioorg Med Chem Lett, 2012).
≈ marks a conversion by molar mass, not a printed value.

Columns and labels:
Vero = experiment: Cytotoxicity against african green monkey Vero cells after 72 hrs by MTT assay; type: cell-based; settings: Chlorocebus sabaeus
[1] = test system: Mycobacterium tuberculosis; experiment: Antimycobacterial activity against Mycobacterium tuberculosis H37Rv ATCC 27294 by alamar blue broth microdilution assay; type: functional

| SMILES | IC50 (Vero) [µg/mL] | MIC90 [1] [µM] |
| --- | --- | --- |
| CN1CC(c2ccccc2)C2(Cc3ccccc3C2=O)C12C(=O)c1ccccc1C2=O (stereo unspecified) | > 62.5 | 6.22 (≈ 2.53 µg/mL) |
| CN1CC(c2cncc(-c3ccc(F)cc3)c2)C2(Cc3ccccc3C2=O)C12C(=O)c1ccccc1C2=O (stereo unspecified) | > 62.5 | 0.121 (≈ 0.0611 µg/mL) |
| CN1CC(c2ccc(Cl)cc2)C2(Cc3ccccc3C2=O)C12C(=O)c1ccccc1C2=O (stereo unspecified) | > 62.5 | 1.2 (≈ 0.528 µg/mL) |
| CN1CC(c2ccc(Br)cc2)C2(Cc3ccccc3C2=O)C12C(=O)c1ccccc1C2=O (stereo unspecified) | > 62.5 | 1.37 (≈ 0.667 µg/mL) |
| CN1CC(c2ccc(C(=O)O)cc2)C2(Cc3ccccc3C2=O)C12C(=O)c1ccccc1C2=O (stereo unspecified) | > 62.5 | 0.295 (≈ 0.133 µg/mL) |
| CN1CC(c2cccc([N+](=O)[O-])c2)C2(Cc3ccccc3C2=O)C12C(=O)c1ccccc1C2=O (stereo unspecified) | > 62.5 | 0.81 (≈ 0.366 µg/mL) |
| CN1CC(c2ccc(C(F)(F)F)cc2)C2(Cc3ccccc3C2=O)C12C(=O)c1ccccc1C2=O (stereo unspecified) | > 62.5 | 0.638 (≈ 0.303 µg/mL) |
| CN1CC(c2ccc(OC(F)(F)F)cc2)C2(Cc3ccccc3C2=O)C12C(=O)c1ccccc1C2=O (stereo unspecified) | > 62.5 | 0.214 (≈ 0.105 µg/mL) |
| COc1ccc(C2CN(C)C3(C(=O)c4ccccc4C3=O)C23Cc2ccccc2C3=O)cc1 (stereo unspecified) | > 62.5 | > 6.25 |
| CN1CC(c2cccc3c2OCO3)C2(Cc3ccccc3C2=O)C12C(=O)c1ccccc1C2=O (stereo unspecified) | > 62.5 | 2.42 (≈ 1.09 µg/mL) |
| CN(C)c1ccc(C2CN(C)C3(C(=O)c4ccccc4C3=O)C23Cc2ccccc2C3=O)cc1 (stereo unspecified) | > 62.5 | 3.32 (≈ 1.5 µg/mL) |
| CN1CC(c2ccc(N3CCOCC3)cc2)C2(Cc3ccccc3C2=O)C12C(=O)c1ccccc1C2=O (stereo unspecified) | > 62.5 | 1.22 (≈ 0.598 µg/mL) |
| NNC(=O)c1ccncc1 [ISONIAZID] | > 62.5 | 0.73 (≈ 0.1 µg/mL) |
